From publication PMC5914168 (ChemMedChem, 2017) come the findings set out here.

Like-named read-outs stand apart in the source and are kept apart here. Bounds are passed on as bounds.

In assay [1] the target is BMP2K kinase domain (38-345) (Homo sapiens, UniProt Q9NSY1). Kind of assay: TR-FRET ligand binding displacement assay, BMP2K. For orientation: In TR-FRET formats the signal depends on donor and acceptor labels being close together.
Assay [2] has as its target AAK1 kinase domain (31-396) (Homo sapiens, UniProt Q2M2I8). Kind of assay: TR-FRET ligand binding displacement assay, AAK1.
Assay [3] deals with STK16 kinase domain (13-305) (Homo sapiens, UniProt O75716). Description: TR-FRET ligand binding displacement assay, STK16.
For assay [4], the target named is T1, GAK kinase domain (12-347) (Homo sapiens, UniProt O14976).
T1 sequence (O14976 12-347): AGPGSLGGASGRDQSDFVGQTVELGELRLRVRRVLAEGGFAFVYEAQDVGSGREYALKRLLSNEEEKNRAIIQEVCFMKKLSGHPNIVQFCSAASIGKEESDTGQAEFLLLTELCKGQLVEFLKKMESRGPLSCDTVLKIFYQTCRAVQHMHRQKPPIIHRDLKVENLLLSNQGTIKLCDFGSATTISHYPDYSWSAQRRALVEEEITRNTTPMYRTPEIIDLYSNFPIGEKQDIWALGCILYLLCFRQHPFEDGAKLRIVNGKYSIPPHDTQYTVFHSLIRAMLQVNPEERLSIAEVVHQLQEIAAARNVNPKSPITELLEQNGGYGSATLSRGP
Kind of assay: TR-FRET ligand binding displacement assay, GAK. As to conditions: for fold drop in GAK potency: relative to 1; for NAK selectivity (ratio of GAK Ki and Ki of nearest NAK family member): selectivity against the nearest NAK family member.

Setting [5] is: read-out: Binding displacement assay Ki BMP2K, TR-FRET, 16-point dose response.

Chain of BMP2K kinase domain (38-345) (Q9NSY1 38-345): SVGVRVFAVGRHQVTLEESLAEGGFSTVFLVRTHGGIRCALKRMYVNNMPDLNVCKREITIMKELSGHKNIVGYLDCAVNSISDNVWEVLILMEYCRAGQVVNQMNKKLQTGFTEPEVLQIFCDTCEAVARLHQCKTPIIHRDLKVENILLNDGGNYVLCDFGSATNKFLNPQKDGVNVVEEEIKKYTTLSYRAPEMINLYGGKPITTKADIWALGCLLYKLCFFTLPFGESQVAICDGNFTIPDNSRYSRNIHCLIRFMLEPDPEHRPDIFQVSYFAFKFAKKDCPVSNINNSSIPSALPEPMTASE
Chain of AAK1 kinase domain (31-396) (Q2M2I8 31-396): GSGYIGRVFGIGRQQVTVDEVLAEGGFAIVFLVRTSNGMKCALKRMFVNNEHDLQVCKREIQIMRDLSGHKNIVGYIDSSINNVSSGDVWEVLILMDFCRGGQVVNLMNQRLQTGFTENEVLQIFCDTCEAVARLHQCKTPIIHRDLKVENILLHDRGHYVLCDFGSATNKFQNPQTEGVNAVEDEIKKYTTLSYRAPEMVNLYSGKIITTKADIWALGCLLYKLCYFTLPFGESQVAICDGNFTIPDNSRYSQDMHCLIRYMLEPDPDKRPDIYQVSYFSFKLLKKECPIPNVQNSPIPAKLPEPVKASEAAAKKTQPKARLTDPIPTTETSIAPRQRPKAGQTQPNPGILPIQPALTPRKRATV
Chain of STK16 kinase domain (13-305) (O75716 13-305): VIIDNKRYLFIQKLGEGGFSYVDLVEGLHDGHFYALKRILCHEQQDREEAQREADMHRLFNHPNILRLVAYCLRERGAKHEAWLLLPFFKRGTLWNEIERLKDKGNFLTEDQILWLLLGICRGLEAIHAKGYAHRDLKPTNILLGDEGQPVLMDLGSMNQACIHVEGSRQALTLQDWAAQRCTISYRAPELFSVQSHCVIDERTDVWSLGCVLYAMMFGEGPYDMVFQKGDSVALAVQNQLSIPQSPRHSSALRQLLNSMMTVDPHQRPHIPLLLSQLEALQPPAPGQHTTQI

As for “6,7-Dimethoxy-N-(3,4,5-trimethoxyphenyl)quinolin-4-amine [Compound 57]”, the Ki (commonly a measure of affinity in units of concentration, obtained from inhibition or displacement) in assay [1] (setting [5]) is 19 µM.

`COc1cc(Nc2ccnc3ccc(C(F)(F)F)cc23)cc(OC)c1OC` [Compound 1, 6-(Trifluoromethyl)-N-(3,4,5-trimethoxyphenyl)quinolin-4-amine]: the Ki is more than 100 µM in assay [1], 54 µM in assay [2] and 17 µM in assay [3].

`COc1cc(Nc2ccnc3ccc(C(F)(F)F)cc23)cc(OC)c1` [Compound 4, N-(3,5-Dimethoxyphenyl)-6-(trifluoromethyl)quinolin-4-amine]: the Ki in assay [1] amounted to 85 µM; in assay [2] it was 34 µM; in assay [4] it was 0.054 µM; in assay [3], 52 µM. For the same molecule, in assay [4], the “fold drop in GAK potency” value worked out at 10 fold. Further, in assay [4], the “NAK selectivity (ratio of GAK Ki and Ki of nearest NAK family member)” value was 640.

`COc1ccc(Nc2ccnc3ccc(C(F)(F)F)cc23)cc1OC` [Compound 5, N-(3,4-Dimethoxyphenyl)-6-(trifluoromethyl)quinolin-4-amine]: the Ki in assay [1] worked out at 44 µM; in assay [2], 24 µM; in assay [4], 0.058 µM; in assay [3], 24 µM. Moreover, the “fold drop in GAK potency” value in assay [4] was 10 fold. Further, the “NAK selectivity (ratio of GAK Ki and Ki of nearest NAK family member)” value in assay [4] was 420.

In the case of `COc1ccc(Nc2ccnc3ccc(C(F)(F)F)cc23)c(OC)c1` [Compound 6, N-(2,4-Dimethoxyphenyl)-6-(trifluoromethyl)quinolin-4-amine], the Ki in assay [1] is more than 100 µM; in assay [2] it was 71 µM; in assay [4], 0.86 µM; in assay [3], 70 µM. Further, the “NAK selectivity (ratio of GAK Ki and Ki of nearest NAK family member)” value in assay [4] came to 81.

For `COc1ccc(OC)c(Nc2ccnc3ccc(C(F)(F)F)cc23)c1` [Compound 7, N-(2,5-Dimethoxyphenyl)-6-(trifluoromethyl)quinolin-4-amine], the Ki is more than 100 µM in assay [1], 80 µM in assay [2], 0.14 µM in assay [4] and 58 µM in assay [3]. For the same molecule, the “NAK selectivity (ratio of GAK Ki and Ki of nearest NAK family member)” value in assay [4] is reported as 420.

Consider `COc1ccc(Nc2ccnc3ccc(C(F)(F)F)cc23)cc1` [Compound 8, N-(4-Methoxyphenyl)-6-(trifluoromethyl)quinolin-4-amine], for which the Ki in assay [1] stood at 75 µM; in assay [2], 56 µM; in assay [4], 0.73 µM; in assay [3], 19 µM. In addition, in assay [4], the “fold drop in GAK potency” value worked out at 100 fold. Besides, in assay [4], the “NAK selectivity (ratio of GAK Ki and Ki of nearest NAK family member)” value was 26.

In turn, `COc1ccccc1Nc1ccnc2ccc(C(F)(F)F)cc12` [Compound 10, N-(2-Methoxyphenyl)-6-(trifluoromethyl)quinolin-4-amine] gave a Ki in assay [1] of 11 µM.

`FC(F)(F)c1ccc2nccc(Nc3ccc4c(c3)OCCO4)c2c1` [Compound 12, N-(2,3-Dihydrobenzo[b][1,4]dioxin-6-yl)-6-(trifluoromethyl)quinolin-4-amine] gave a Ki in assay [1] of 56 µM. Moreover, the “NAK selectivity (ratio of GAK Ki and Ki of nearest NAK family member)” value in assay [4] is reported as 14.

For `COc1cc(Nc2ncnc3ccc(C(F)(F)F)cc23)cc(OC)c1OC` [Compound 13, 6-(Trifluoromethyl)-N-(3,4,5-trimethoxyphenyl)quinazolin-4-amine], in assay [4], the “NAK selectivity (ratio of GAK Ki and Ki of nearest NAK family member)” value is recorded as 73.

As for `COc1cc(Nc2ncnc3ccc(C(F)(F)F)cc23)cc(OC)c1` [Compound 14, N-(3,5-Dimethoxyphenyl)-6-(trifluoromethyl)quinazolin-4-amine], the Ki in assay [1] (setting [5]) was more than 100 µM; in assay [2] (read-out: Binding displacement assay Ki AAK1, TR-FRET, 16-point dose response) it was more than 100 µM; in assay [3] (read-out: Binding displacement assay Ki STK16, TR-FRET, 16-point dose response), 8 µM. Further, the “NAK selectivity (ratio of GAK Ki and Ki of nearest NAK family member)” value in assay [4] is 26.

For `COc1ccc(Nc2ncnc3ccc(C(F)(F)F)cc23)cc1` [Compound 15, N-(4-Methoxyphenyl)-6-(trifluoromethyl)quinazolin-4-amine], the inhibitory constant (Ki) in assay [1] is more than 100 µM. For the same molecule, the “NAK selectivity (ratio of GAK Ki and Ki of nearest NAK family member)” value in assay [4] is 1.5.

In the case of `CS(=O)(=O)c1cccc(Nc2ccnc3ccc(C(F)(F)F)cc23)c1` [Compound 37, N-(3-(Methylsulfonyl)phenyl)-6-(trifluoromethyl)quinolin-4-amine], the “STK16 affinity relative to GAK” value in assay [3] is not above 2 fold.

For the molecule `CC(C)(C)Oc1ccc(Nc2ccnc3ccc(C(F)(F)F)cc23)cc1` [Compound 39, N-(4-(tert-Butoxy)phenyl)-6-(trifluoromethyl)quinolin-4-amine], the “range of affinity across all four NAK family kinases” value in assay [4] (GAK, AAK1, BMP2K, STK16) is listed as not above 8 fold.

Take `COc1cc(Nc2ccnc3ccc(F)cc23)cc(OC)c1OC` [Compound 42, 6-Fluoro-N-(3,4,5-trimethoxyphenyl)quinolin-4-amine]: the Ki in assay [1] is more than 100 µM; in assay [2] it was 83 µM; in assay [3], more than 100 µM.

In the case of `COc1cc(Nc2ccnc3cc(F)ccc23)cc(OC)c1OC` [Compound 43, 7-Fluoro-N-(3,4,5-trimethoxyphenyl)quinolin-4-amine], the Ki in assay [1] was more than 100 µM; in assay [2], 44 µM; in assay [3], more than 100 µM.

As to `COc1cc(Nc2ccnc3ccc(S(C)(=O)=O)cc23)cc(OC)c1OC` [Compound 47, 6-(Methylsulfonyl)-N-(3,4,5-trimethoxyphenyl)quinolin-4-amine], in assay [1], the Ki is more than 100 µM.

For `COc1ccc2nccc(Nc3cc(OC)c(OC)c(OC)c3)c2c1` [Compound 48, 6-Methoxy-N-(3,4,5-trimethoxyphenyl)quinolin-4-amine], the Ki in assay [1], in assay [2] and in assay [3] was more than 100 µM in each case.

With `COc1ccc2c(Nc3cc(OC)c(OC)c(OC)c3)ccnc2c1` [Compound 50, 7-Methoxy-N-(3,4,5-trimethoxyphenyl)quinolin-4-amine], the Ki is more than 100 µM in assay [1], 58 µM in assay [2] and more than 100 µM in assay [3]. Moreover, the “NAK selectivity (ratio of GAK Ki and Ki of nearest NAK family member)” value in assay [4] was 22000.

Take `COc1cc(Nc2ccnc3cc(C(F)(F)F)ccc23)cc(OC)c1OC` [Compound 51, 7-(Trifluoromethyl)-N-(3,4,5-trimethoxyphenyl)quinolin-4-amine]: in assay [4], the “NAK selectivity (ratio of GAK Ki and Ki of nearest NAK family member)” value came out at 15000.

As for `COc1cc(Nc2ccnc3cc(C#N)ccc23)cc(OC)c1OC` [Compound 52, 4-((3,4,5-Trimethoxyphenyl)amino)quinoline-7-carbonitrile], the Ki in assay [1] is more than 100 µM. In assay [4], the “NAK selectivity (ratio of GAK Ki and Ki of nearest NAK family member)” value was determined as 9300.

As to `C#Cc1cccc(Nc2ccnc3cc(OC)c(OC)cc23)c1` [Compound 55, N-(3-Ethynylphenyl)-6,7-dimethoxyquinolin-4-amine], the inhibition constant (Ki) was 2.4 µM in assay [1], 0.9 µM in assay [2], 0.0035 µM in assay [4] and 19 µM in assay [3]. In assay [4], the “NAK selectivity (ratio of GAK Ki and Ki of nearest NAK family member)” value stood at 260.

As for `COc1cc2nccc(Nc3cccc(C(C)=O)c3)c2cc1OC` [Compound 56, 1-(3-((6,7-dimethoxyquinolin-4-yl)amino)phenyl)ethan-1-one], the Ki in assay [1] came out at 0.68 µM; in assay [2] it was 0.26 µM; in assay [4] it was 0.4 µM; in assay [3], 1.5 µM. In assay [4] (relative to 49), the “fold reduction in GAK activity” value worked out at 100 fold.
